Results: US11446287B2, “Compounds and methods for EP300 or CBP modulation and indications therefor” (Opna Immuno-Oncology SA, priority 2019, dated 2022)

Target: T1, Recombinant human EP300 containing the bromodomain (EP300-BD (1040-1161)) (Homo sapiens, UniProt Q09472)
T1 construct: Recombinant human EP300 bromodomain (EP300-BD (1040-1161)); made in house; host or cells: E. coli BL21-CodonPlus (DE3), modified pET vector
T1 sequence (Q09472 1040-1161): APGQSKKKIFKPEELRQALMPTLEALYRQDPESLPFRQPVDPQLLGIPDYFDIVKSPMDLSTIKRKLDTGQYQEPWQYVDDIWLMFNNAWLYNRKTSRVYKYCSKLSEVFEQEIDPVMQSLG
Assay: EP300 Alphascreen binding assay
Method in brief: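 Displacement of a biotinylated acetyl-K56 histone H3 peptide from the N-His bromodomain construct (1040-1161) measured by AlphaScreen proximity, beads at 7.5 μg/ml final, read 60 min after addition. Protein, peptide and compound first incubated 1 h at room temperature, pH 7.5 HEPES buffer; IC50 by four-parameter logistic fit.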

Row | Compound | IC50
1 | CCOc1cc(C(=O)O)cc(OCC)c1-n1cc(-c2cncc(Cl)c2)c2ncc(-c3c(C)noc3C)cc21 [P-0193, 4-(3-(5-chloropyridin-3-yl)-6-(3,5-dimethylisoxazol-4-yl)-1H-pyrrolo[3,2-b]pyridin-1-yl)-3,5-diethoxybenzoic acid] | 0.1 to 1000 nM
2 | CCOc1cc(C(=O)O)cc(OCC)c1-n1cc(-c2ccc(OC)cc2F)c2ncc(-c3c(C)noc3C)cc21 [P-0194, 4-(6-(3,5-dimethylisoxazol-4-yl)-3-(2-fluoro-4-methoxyphenyl)-1H-pyrrolo[3,2-b]pyridin-1-yl)-3,5-diethoxybenzoic acid] | 0.1 to 1000 nM
3 | CCOc1cc(C(=O)O)cc(OCC)c1-n1cc(-c2cnn(C)c2)c2ncc(-c3c(C)noc3C)cc21 [P-0195, 4-(6-(3,5-dimethylisoxazol-4-yl)-3-(1-methyl-1H-pyrazol-4-yl)-1H-pyrrolo[3,2-b]pyridin-1-yl)-3,5-diethoxybenzoic acid] | 0.1 to 1000 nM
4 | Cc1noc(C)c1-c1cnc2c(-c3ccccc3)cn(-c3ccc(C(=O)O)cc3OC(F)(F)F)c2c1 [P-0196, 4-(6-(3,5-dimethylisoxazol-4-yl)-3-phenyl-1H-pyrrolo[3,2-b]pyridin-1-yl)-3-(trifluoromethoxy)benzoic acid] | 0.1 to 1000 nM
5 | Cc1noc(C)c1-c1cnc2c(c1)c(-c1c(Cl)cc(C(=O)O)cc1Cl)cn2[C@@H](C)c1ccccn1 [P-0197, (S)-3,5-dichloro-4-(5-(3,5-dimethylisoxazol-4-yl)-1-(1-(pyridin-2-yl)ethyl)-1H-pyrrolo[2,3-b]pyridin-3-yl)benzoic acid] | 0.1 to 1000 nM
6 | Cc1noc(C)c1-c1cnc2c(c1)c(-c1c(Cl)cc(C(=O)O)cc1OC(F)(F)F)cn2C(C1CC1)C1CC1 [P-0198, 3-chloro-4-(1-(dicyclopropylmethyl)-5-(3,5-dimethylisoxazol-4-yl)-1H-pyrrolo[2,3-b]pyridin-3-yl)-5-(trifluoromethoxy)benzoic acid] | 0.1 to 1000 nM
7 | Cc1noc(C)c1-c1cnc2c(c1)c(-c1ccc(C(=O)O)cc1OC(F)(F)F)cn2C(CC#N)C1CC1 (stereo not drawn) [P-0199, 4-(1-(2-cyano-1-cyclopropylethyl)-5-(3,5-dimethylisoxazol-4-yl)-1H-pyrrolo[2,3-b]pyridin-3-yl)-3-(trifluoromethoxy)benzoic acid] | 0.1 to 1000 nM
8 | Cc1noc(C)c1-c1cnc2c(c1)c(-c1ccc(C(=O)O)cc1OC(F)(F)F)cn2C(CC#N)C1CCCC1 (stereo not drawn) [P-0200, 4-(1-(2-cyano-1-cyclopentylethyl)-5-(3,5-dimethylisoxazol-4-yl)-1H-pyrrolo[2,3-b]pyridin-3-yl)-3-(trifluoromethoxy)benzoic acid] | 0.1 to 1000 nM
9 | CCOc1cc(C(=O)O)cc(OCC)c1-n1cc(-c2cnc(OC)nc2)c2ncc(-c3c(C)noc3C)cc21 [P-0201, 4-(6-(3,5-dimethylisoxazol-4-yl)-3-(2-methoxypyrimidin-5-yl)-1H-pyrrolo[3,2-b]pyridin-1-yl)-3,5-diethoxybenzoic acid] | 0.1 to 1000 nM
10 | Cc1noc(C)c1-c1cnc2c(c1)c(-c1ccc(C(=O)O)cc1OC(F)(F)F)cn2S(=O)(=O)C1CC1 [P-0202, 4-(1-(cyclopropylsulfonyl)-5-(3,5-dimethylisoxazol-4-yl)-1H-pyrrolo[2,3-b]pyridin-3-yl)-3-(trifluoromethoxy)benzoic acid] | 0.1 to 1000 nM
11 | Cc1noc(C)c1-c1cnc2c(c1)c(-c1ccc(C(=O)O)cc1OC(F)(F)F)cn2-c1ccnc(C(C)C)c1 [P-0203, 4-(5-(3,5-dimethylisoxazol-4-yl)-1-(2-isopropylpyridin-4-yl)-1H-pyrrolo[2,3-b]pyridin-3-yl)-3-(trifluoromethoxy)benzoic acid] | 0.1 to 1000 nM
12 | Cc1noc(C)c1-c1cnc2c(c1)c(-c1ccc(C(=O)O)cc1OC(F)(F)F)cn2-c1cnccc1C#N [P-0204, 4-(1-(4-cyanopyridin-3-yl)-5-(3,5-dimethylisoxazol-4-yl)-1H-pyrrolo[2,3-b]pyridin-3-yl)-3-(trifluoromethoxy)benzoic acid] | 0.1 to 1000 nM
13 | CCOc1cc(C(=O)O)cc(F)c1-n1cc(-c2ccccc2)c2ncc(-c3c(C)noc3C)cc21 [P-0205, 4-(6-(3,5-dimethylisoxazol-4-yl)-3-phenyl-1H-pyrrolo[3,2-b]pyridin-1-yl)-3-ethoxy-5-fluorobenzoic acid] | 0.1 to 1000 nM
14 | CCOc1cccc(C#N)c1-n1cc(-c2ccccc2)c2ncc(-c3c(C)noc3C)cc21 [P-0206, 2-(6-(3,5-dimethylisoxazol-4-yl)-3-phenyl-1H-pyrrolo[3,2-b]pyridin-1-yl)-3-ethoxybenzonitrile] | 0.1 to 1000 nM
15 | Cc1noc(C)c1-c1cnc2c(-c3ccccc3)cn(-c3c(Cl)cccc3C#N)c2c1 [P-0207, 3-chloro-2-(6-(3,5-dimethylisoxazol-4-yl)-3-phenyl-1H-pyrrolo[3,2-b]pyridin-1-yl)benzonitrile] | 1000 to 8000 nM
16 | CCOc1cc(C(=O)O)cc(OCC)c1-n1cc(C2=CCC(F)(F)CC2)c2ncc(-c3c(C)noc3C)cc21 [P-0208, 4-(3-(4,4-difluorocyclohex-1-en-1-yl)-6-(3,5-dimethylisoxazol-4-yl)-1H-pyrrolo[3,2-b]pyridin-1-yl)-3,5-diethoxybenzoic acid] | 0.1 to 1000 nM
17 | CCOc1cc(C(=O)O)cc(OCC)c1-n1cc(-c2ccc(F)c(Cl)c2)c2ncc(-c3c(C)noc3C)cc21 [P-0209, 4-(3-(3-chloro-4-fluorophenyl)-6-(3,5-dimethylisoxazol-4-yl)-1H-pyrrolo[3,2-b]pyridin-1-yl)-3,5-diethoxybenzoic acid] | 0.1 to 1000 nM
18 | CCOc1cc(C(=O)O)cc(OCC)c1-n1cc(CC2CCC2)c2ncc(-c3c(COC)noc3C)cc21 [P-0210, 4-(3-(cyclobutylmethyl)-6-(3-(methoxymethyl)-5-methylisoxazol-4-yl)-1H-pyrrolo[3,2-b]pyridin-1-yl)-3,5-diethoxybenzoic acid] | 0.1 to 1000 nM
19 | Cc1cnccc1-n1cc(-c2ccc(C(=O)O)cc2OC(F)(F)F)c2cc(-c3c(C)noc3C)cnc21 [P-0211, 4-(5-(3,5-dimethylisoxazol-4-yl)-1-(3-methylpyridin-4-yl)-1H-pyrrolo[2,3-b]pyridin-3-yl)-3-(trifluoromethoxy)benzoic acid] | 0.1 to 1000 nM
20 | Cc1noc(C)c1-c1cnc2c(c1)c(-c1ccc(C(=O)O)cc1OC(F)(F)F)cn2C1CCS(=O)(=O)CC1 [P-0212, 4-(5-(3,5-dimethylisoxazol-4-yl)-1-(1,1-dioxidotetrahydro-2H-thiopyran-4-yl)-1H-pyrrolo[2,3-b]pyridin-3-yl)-3-(trifluoromethoxy)benzoic acid] | 0.1 to 1000 nM
21 | Cc1noc(C)c1-c1cnc2c(c1)c(-c1ccc(C(=O)O)cc1OC(C)C)cn2C(C1CC1)C1CC1 [P-0213, 4-(1-(dicyclopropylmethyl)-5-(3,5-dimethylisoxazol-4-yl)-1H-pyrrolo[2,3-b]pyridin-3-yl)-3-isopropoxybenzoic acid] | 0.1 to 1000 nM
22 | Cc1noc(C)c1-c1cnc2c(c1)c(-c1ccc(C(=O)O)cc1OCC(F)(F)F)cn2C(C1CC1)C1CC1 [P-0214, 4-(1-(dicyclopropylmethyl)-5-(3,5-dimethylisoxazol-4-yl)-1H-pyrrolo[2,3-b]pyridin-3-yl)-3-(2,2,2-trifluoroethoxy)benzoic acid] | 0.1 to 1000 nM
23 | Cc1noc(C)c1-c1cnc2c(c1)c(-c1ccc(C(=O)O)cc1OC(F)(F)F)cn2-c1ncccc1C#N [P-0215, 4-(1-(3-cyanopyridin-2-yl)-5-(3,5-dimethylisoxazol-4-yl)-1H-pyrrolo[2,3-b]pyridin-3-yl)-3-(trifluoromethoxy)benzoic acid] | 0.1 to 1000 nM
24 | Cc1noc(C)c1-c1cnc2c(c1)c(-c1ccc(C(=O)O)cc1OC(F)(F)F)cn2-c1ncccc1C#CC1CC1 [P-0216, 4-(1-(3-(cyclopropylethynyl)pyridin-2-yl)-5-(3,5-dimethylisoxazol-4-yl)-1H-pyrrolo[2,3-b]pyridin-3-yl)-3-(trifluoromethoxy)benzoic acid] | 0.1 to 1000 nM
25 | CCOc1cc(C(=O)O)cc(OCC)c1-n1cc(-c2ccc(C#N)cc2F)c2ncc(-c3c(C)noc3C)cc21 [P-0217, 4-(3-(4-cyano-2-fluorophenyl)-6-(3,5-dimethylisoxazol-4-yl)-1H-pyrrolo[3,2-b]pyridin-1-yl)-3,5-diethoxybenzoic acid] | 0.1 to 1000 nM
26 | CCOc1cc(C(=O)O)cc(OCC)c1-n1cc(-c2ccc(C(=O)NC3CC3)cc2)c2ncc(-c3c(C)noc3C)cc21 [P-0218, 4-(3-(4-(cyclopropylcarbamoyl)phenyl)-6-(3,5-dimethylisoxazol-4-yl)-1H-pyrrolo[3,2-b]pyridin-1-yl)-3,5-diethoxybenzoic acid] | 0.1 to 1000 nM
27 | COC(=O)c1cc(OC)c(-n2cc(-c3ccccc3)c3ncc(-c4c(C)noc4C)cc32)c(OC)c1 [P-0219, methyl 4-(6-(3,5-dimethylisoxazol-4-yl)-3-phenyl-1H-pyrrolo[3,2-b]pyridin-1-yl)-3,5-dimethoxybenzoate] | 0.1 to 1000 nM
28 | COc1cc(C(=O)O)cc(OC)c1-n1cc(-c2ccccc2)c2ncc(-c3c(C)noc3C)cc21 [P-0220, 4-(6-(3,5-dimethylisoxazol-4-yl)-3-phenyl-1H-pyrrolo[3,2-b]pyridin-1-yl)-3,5-dimethoxybenzoic acid] | 0.1 to 1000 nM
29 | COc1cccc(OC)c1-n1cc(-c2ccccc2)c2ncc(-c3c(C)noc3C)cc21 [P-0221, 4-(1-(2,6-dimethoxyphenyl)-3-phenyl-1H-pyrrolo[3,2-b]pyridin-6-yl)-3,5-dimethylisoxazole] | 0.1 to 1000 nM
30 | CCOc1cc(C(=O)O)cc(OCC)c1-n1cc(-c2ccnc(F)c2)c2ncc(-c3c(C)noc3C)cc21 [P-0222, 4-(6-(3,5-dimethylisoxazol-4-yl)-3-(2-fluoropyridin-4-yl)-1H-pyrrolo[3,2-b]pyridin-1-yl)-3,5-diethoxybenzoic acid] | 0.1 to 1000 nM
